The test system of this assay is T1, rlac1338.
T1 construct: gene lac1338; 1,338 bp gene (about 445 residues), codon-optimised, in pET-32a(+), E. coli BL21(DE3); His-tag fusion (18 kD vector tag), ~68 kD by SDS-PAGE
The assay is described as follows: initial rates by OD405, Lineweaver-Burk. In kind it is biochemical, uncultured bacterium. The conditions noted are these: ± sign lost in table text. The source says: initial rates by OD405, Lineweaver-Burk on rlac1338

The mark [1] stands for this setting: mutant lac2-9, optimal pH 6.5 and 60°C, printed base change T698A falls in codon 233, not 232.

Usually Km stands for the concentration of substrate that gives half-maximal velocity. As to `Oc1cccc2ccccc12` [1-naphthol], the Km worked out at 6040 µM under setting [1]; 5600 µM (optimal pH 6.0 and 55°C).
On the same counts, the results for `COc1cccc(OC)c1O` [2,6-DMP] are 560 ± 3.7 µM and 654 ± 2.1 µM.
On the same counts, the results for `CCn1c(=NN=c2sc3cc(S(=O)(=O)O)ccc3n2CC)sc2cc(S(=O)(=O)O)ccc21` [ABTS, 2,2-azide-bis (3-ethylbenzothiazole-6-sulfonic acid)] are 76 ± 1.8 µM and 210 ± 3.3 µM.
Regarding `Oc1ccccc1O` [Catecho], the Km by setting is: under setting [1], 570 ± 2.9 µM; (optimal pH 6.0 and 55°C) 507 ± 2.5 µM.
On the same counts, the results for `COc1ccccc1O` [Guaiacol] are 4300 µM and 4900 µM.

The values are drawn from publication PMC8149590, “Biochemical Characterization of a Novel Bacterial Laccase and Improvement of Its Efficiency by Directed Evolution on Dye Degradation” (Frontiers in Microbiology, 2021).
